Here are results for 13 molecules from patent US8404728B2 (priority 2009, dated 2013).

One data set addresses BoNTAe (Clostridium botulinum, UniProt P0DPI0). In words: biochemical. The conditions noted are these: for inhibition at 1 µM: read-out: % inhibition of BoNTAe; for inhibition at 20 µM: inhibitor concentration 20 μM.
Another data set is described as follows: in vivo. The conditions noted are these: Balb/c, mouse, ip, 2 mg/kg.
The target in data set [1] is botulinum neurotoxin serotype A (Clostridium botulinum, UniProt P0DPI0). Also noted: species or system Balb/c mice. The conditions noted are these: mouse, in vivo, ip.
botulinum neurotoxin serotype A, sequence (P0DPI0 whole entry, looked up): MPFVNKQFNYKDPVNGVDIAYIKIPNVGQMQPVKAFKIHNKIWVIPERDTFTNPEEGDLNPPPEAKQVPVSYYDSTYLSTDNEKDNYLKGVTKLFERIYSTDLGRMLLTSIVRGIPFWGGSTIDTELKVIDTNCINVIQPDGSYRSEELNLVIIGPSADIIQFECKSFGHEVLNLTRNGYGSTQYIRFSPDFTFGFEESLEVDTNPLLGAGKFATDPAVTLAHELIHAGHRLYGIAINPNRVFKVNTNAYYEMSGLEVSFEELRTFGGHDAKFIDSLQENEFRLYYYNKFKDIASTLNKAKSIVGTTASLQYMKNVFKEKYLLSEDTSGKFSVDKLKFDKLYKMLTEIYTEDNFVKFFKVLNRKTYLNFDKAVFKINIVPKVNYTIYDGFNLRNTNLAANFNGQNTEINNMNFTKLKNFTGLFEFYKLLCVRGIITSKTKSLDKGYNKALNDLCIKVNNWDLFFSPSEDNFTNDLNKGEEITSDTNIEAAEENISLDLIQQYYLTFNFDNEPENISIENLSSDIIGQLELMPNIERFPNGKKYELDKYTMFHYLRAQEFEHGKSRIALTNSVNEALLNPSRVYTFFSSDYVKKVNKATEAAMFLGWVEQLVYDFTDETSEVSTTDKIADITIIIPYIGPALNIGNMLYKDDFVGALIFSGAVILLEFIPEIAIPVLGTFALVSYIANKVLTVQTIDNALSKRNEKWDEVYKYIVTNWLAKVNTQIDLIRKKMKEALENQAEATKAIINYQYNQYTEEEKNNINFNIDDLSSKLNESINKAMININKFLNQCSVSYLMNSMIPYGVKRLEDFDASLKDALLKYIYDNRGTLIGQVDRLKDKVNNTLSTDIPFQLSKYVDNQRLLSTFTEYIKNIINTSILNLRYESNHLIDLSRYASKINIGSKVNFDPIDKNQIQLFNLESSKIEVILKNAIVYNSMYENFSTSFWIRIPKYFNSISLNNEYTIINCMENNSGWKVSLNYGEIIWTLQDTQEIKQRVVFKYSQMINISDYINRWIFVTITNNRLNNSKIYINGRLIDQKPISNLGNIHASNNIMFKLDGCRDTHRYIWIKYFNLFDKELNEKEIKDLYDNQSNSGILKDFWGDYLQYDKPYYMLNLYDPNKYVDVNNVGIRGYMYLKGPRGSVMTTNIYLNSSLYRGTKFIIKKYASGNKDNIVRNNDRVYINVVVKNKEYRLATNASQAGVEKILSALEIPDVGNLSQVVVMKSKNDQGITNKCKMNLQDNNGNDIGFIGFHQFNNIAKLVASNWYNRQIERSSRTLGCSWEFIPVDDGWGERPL
The conditions of data set [2]: mouse, in vivo, ip, 2 mg/kg; for AUClast / Cmax / Vd: Balb/c.

Each structure is given as a SMILES string. Counter-ions that a name gives are not always drawn. Like-named read-outs stand apart in the source and are kept apart here.

BoNTAe, sequence (P0DPI0 2-448 limits assumed): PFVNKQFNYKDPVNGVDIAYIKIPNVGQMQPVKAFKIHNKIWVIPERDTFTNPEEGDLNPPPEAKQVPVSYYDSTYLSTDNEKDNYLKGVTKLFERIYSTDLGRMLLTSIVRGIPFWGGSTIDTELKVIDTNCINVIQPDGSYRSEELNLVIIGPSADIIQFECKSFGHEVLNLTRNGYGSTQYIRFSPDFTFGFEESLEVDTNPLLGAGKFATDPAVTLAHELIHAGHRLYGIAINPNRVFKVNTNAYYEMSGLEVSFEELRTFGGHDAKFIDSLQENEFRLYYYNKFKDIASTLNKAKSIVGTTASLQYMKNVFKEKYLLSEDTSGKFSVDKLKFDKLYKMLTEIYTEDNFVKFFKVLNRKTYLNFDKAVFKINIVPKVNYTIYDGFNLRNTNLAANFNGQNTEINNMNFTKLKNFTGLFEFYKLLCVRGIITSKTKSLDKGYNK

As for `NCCCCCCCN(CCCCCCCN)C(=O)c1cc(CCC(=O)NO)c(CCC(CO)(c2ccccc2)c2ccccc2)n1Cc1ccccc1` [Inhibitor E4b, N,N-Bis(7-aminoheptyl)-1-benzyl-5-(4-hydroxy-3,3-diphenylbutyl)-4-(3-(hydroxyamino)-3-oxopropyl)-1H-pyrrole-2-carboxamide], the affinity at BoNTAe, expressed as Ki, was 210 nM. The inhibition at 1 µM on BoNTAe (inhibitor concentration 1 μM) stood at 79 ± 1%.
Take `NCCCCCCCCCCCN(CCCCCCCCCCCN)C(=O)c1ccc(-c2cc3ccc(C(=O)c4cc(CC(=O)NO)c(-c5cccc(O)c5)s4)cc3n2CCCCN)cc1` [Inhibitor E1d]: on BoNTAe, the affinity corresponds to a Ki of 340 nM and the inhibition at 1 µM was found to be 68 ± 1%.
With `NCCCCn1c(-c2ccccc2)c(F)c2ccc(C(=O)c3cc(CC(=O)NO)c(-c4cccc(N)c4)s3)cc21` [Inhibitor E3, 2-(5-(1-(4-aminobutyl)-3-fluoro-2-phenyl-1H-indole-6-carbonyl)-2-(3-aminophenyl)thiophen-3-yl)-N-hydroxyacetamide], on BoNTAe, at 20 µM the inhibition was 47 ± 1%. For the same molecule, the Tmax in “in vivo” stood at 60 min. Moreover, the proportion of survivors result in data set [1] is listed as “significantly (p<0.05) increased the proportion of survivors”. Also, in data set [2], the AUClast came to 1385.93 ng·h/mL, the Cmax stood at 255.99 ng/mL, the Vd amounted to 12.84 L/kg and the T1/2 was determined as 6.25.
Regarding `O=C(CCc1cc(C(=O)Nc2cc(CCCCCCN3C(=O)c4ccccc4C3=O)c(OCCCCCCN3C(=O)c4ccccc4C3=O)c(CCCCCCN3C(=O)c4ccccc4C3=O)c2)n(Cc2ccccc2)c1C#CC(O)(c1ccccc1)c1ccccc1)NO` [Inhibitor E6, 1-Benzyl-N-(3,5-bis(6-(1,3-dioxoisoindolin-2-yl)hexyl)-4-(6-(1,3-dioxoisoindolin-2-yl)hexyloxy)phenyl)-5-(3-hydroxy-3,3-diphenylprop-1-ynyl)-4-(3-(hydroxyamino)-3-oxopropyl)-1H-pyrrole-2-carboxamide trifluoroacetic acid salt], at BoNTAe (inhibitor concentration 1 μM), the inhibition at 1 µM turned out to be 50 ± 2%.
Same read-out and setting: the same measure for `NCCCCCCN(CCCCCCN)C(=O)c1ccc(-c2cc3ccc(C(=NO)c4cc(CC(=O)NO)c(-c5cccc(O)c5)s4)cc3n2CCCCN)cc1` [Inhibitor E1f, 4-(1-(4-aminobutyl)-6-((4-(2-(hydroxyamino)-2-oxoethyl)-5-(3-hydroxyphenyl)thiophen-2-yl)(hydroxyimino)methyl)-1H-indol-2-yl)-N,N-bis(6-aminohexyl)benzamide]: 47 ± 1%.
For `NCCCCCCCCCCN(CCCCCCCCCCN)C(=O)c1ccc(-c2cc3ccc(C(=O)c4cc(CC(=O)NO)c(-c5cccc(O)c5)s4)cc3n2CCCCN)cc1` [Inhibitor E1c, 4-(1-(4-aminobutyl)-6-(4-(2-(hydroxyamino)-2-oxoethyl)-5-(3-hydroxyphenyl)thiophene-2-carbonyl)-1H-indol-2-yl)-N,N-bis(10-aminodecyl)benzamide], the affinity at BoNTAe corresponds to a Ki of 260 nM. The inhibition at 1 µM on BoNTAe (inhibitor concentration 1 μM) was found to be 75 ± 1%.
In the case of `NCCCCCN(CCCCCN)C(=O)c1ccc(-c2cc3ccc(C(=NO)c4cc(CC(=O)NO)c(-c5cccc(O)c5)s4)cc3n2CCCCN)cc1` [Inhibitor E1g], the inhibition at 1 µM at BoNTAe worked out at 48%.
As for `NCCCCn1c(-c2ccccc2)c(F)c2ccc(C(=O)c3cc(CC(=O)NO)c(-c4ccc(O)cc4)s3)cc21` [Inhibitor E2, 2-(5-(1-(4-Aminobutyl)-3-fluoro-2-phenyl-1H-indole-6-carbonyl)-2-(4-hydroxyphenyl)thiophen-3-yl)-N-hydroxyacetamide], on BoNTAe, 20 µM produced 82 ± 6% inhibition. Further, in “in vivo”, the Tmax was 30 min. Also, in data set [1], the proportion of survivors result was “significantly (p<0.05) increased the proportion of survivors”. In data set [2], the AUClast turned out to be 1386.4 ng·h/mL, the Cmax is reported as 738.4 ng/mL, the Vd was found to be 14.95 L/kg and the T1/2 came to 6.5.
With `O=C(CCc1cc(C(=O)Nc2cc(CCCCCCN3C(=O)c4ccccc4C3=O)c(OCCCCCCCN3C(=O)c4ccccc4C3=O)c(CCCCCCN3C(=O)c4ccccc4C3=O)c2)n(Cc2ccccc2)c1C#CC(O)(c1ccccc1)c1ccccc1)NO` [Inhibitor E6b, 1-Benzyl-N-(3,5-bis(6-(1,3-dioxoisoindolin-2-yl)hexyl)-4-(7-(1,3-dioxoisoindolin-2-yl)heptyloxy)phenyl)-5-(3-hydroxy-3,3-diphenylprop-1-ynyl)-4-(3-(hydroxyamino)-3-oxopropyl)-1H-pyrrole-2-carboxamide trifluoroacetic acid salt], the inhibition at 1 µM at BoNTAe (inhibitor concentration 1 μM) came out at 59 ± 2%.
At BoNTAe, `NCCCCCCCN(CCCCCCCN)C(=O)c1cc(CCC(=O)NO)c(CCC(O)(c2ccccc2)c2ccccc2)n1Cc1ccccc1` [Inhibitor E4] yielded a Ki of 760 nM. Further, the inhibition at 1 µM on BoNTAe (inhibitor concentration 1 μM) was determined as 52 ± 1%.
Turning to `NCCCCCCCCCCCCN(CCCCCCCCCCCCN)C(=O)c1ccc(-c2cc3ccc(C(=O)c4cc(CC(=O)NO)c(-c5cccc(O)c5)s4)cc3n2CCCCN)cc1` [Inhibitor E1e], on BoNTAe, the affinity, expressed as Ki, was 360 nM and the inhibition at 1 µM came out at 49%.
As for `NCCCCCCCCCOc1c(CCCCCCN)cc(NC(=O)c2cc(CCC(=O)NO)c(CCC(N)(c3ccccc3)c3ccccc3)n2Cc2ccccc2)cc1CCCCCCN` [Inhibitor E6c], on BoNTAe, the inhibition at 1 µM turned out to be 55 ± 2%.
`NCCCCCCCCN(CCCCCCCCN)C(=O)c1ccc(-c2cc3ccc(C(=NO)c4cc(CC(=O)NO)c(-c5cccc(O)c5)s4)cc3n2CCCCN)cc1` [Inhibitor E1h]: the inhibition at 1 µM at BoNTAe amounted to 60 ± 1%.
